The results in this text go back to patent US6406856B1, “Biosensor” (Aberdeen University, priority 1998, dated 2002).

Series [1] relates to dividing LucΔ S. cerevisiae strain cells. The series can be described thus: Dividing cell assay, luciferase activity, 96-well plates. Type of series: cell-based, Saccharomyces cerevisiae. The note with it: dilutions in 4.5% ethanol, 1x SC (-ura), exposure 3, 5, 7, 9 h. Here is the method:
(§1) The following procedure was designed to monitor the effect of increasing the exposure time up to 9 hours and to determine the different responses of dividing and non-dividing biosensor cells to the presence of DNA-damaging agents. For assay preparation, the diluent used was ethanol at 4.5% final concentration. All ethidium bromide dilution standards were prepared in glassware. […] The black 96-well plates were covered with a plate sealer and incubated at 30° C. before and between readings. […] Additional of 100 μl citrate phosphate buffer (pH 2.5), containing 0.2 mM luciferin, was performed at each time point before luminescence quantification in a Lucy Anthos 1 luminometer using the Stingray (v2.0b31) software package. Following luminescence quantification 100 μl was removed from the blank well in the dividing assays for OD600 measurements and cell counts. […]
Thus in FIG. 13, the effect of ethidium bromide on dividing cells was measured by recording luciferase activity from cells in wells containing ethidium bromide dilutions prepared in 4.5% ethanol. […]

The test system of series [2] is non-dividing LucΔ S. cerevisiae strain cells. In words: Non-dividing cell assay, light output, 96-well plates. Particulars: dilutions in 4.5% ethanol, cells in ddH2O, exposure 3, 5, 7, 9 h. Type of series: cell-based, Saccharomyces cerevisiae. Here is the method: as §1
In FIG. 14, the effect of ethidium bromide on non-dividing cells was measured by recording the light output from cells in wells containing ethidium bromide dilutions prepared in 4.5% ethanol. […]

Series [3] relates to S. cerevisiae pPLUCΔP biosensor. The series can be described thus: S. cerevisiae pPLUCΔP biosensor luminescence toxicity assay. Particulars: for detection of toxic substance by change in luminescence: 10 min exposure, toxicant at pH 5.5, FIGS. 5 and 6.
Description: In vivo luciferase activity assays using S. cerevisiae require acidification to allow the substrate for the light reaction (luciferin) to freely enter intact cells. Therefore, a two-step assay procedure was designed to incorporate separate toxicity analysis without pH adjustment and subsequent acidification for luminescence quantification. In preparation for the assay, S. cerevisiae cells were harvested at peak luminescence (around 3 to 4×10^8 cells/ml), centrifuged at 700 g (3000 rpm) and washed twice in 5 mM KCl; keeping the original volume constant for the first wash, but halved for second wash (allowing for modified dilution in assay). The first step (exposure), 50 μl of washed S. cerevisiae cells are added to a 450 μl sample (pH generally not important). In an alternative procedure the S. cerevisiae can also be resuspended in water rather than in 5 mM Kcl. The second step (acificiation), 500 μl citrate phosphate buffer (pH2.5), also containing the luciferan (0.1 mM final concentration in 1 ml sample), are added to make up 1 ml total volume for subsequent luminescence quantification. The exposure time is generally 10 minutes, but this can be lengthened or shortened depending on assay requirements (e.g. FIGS. 10a, 10b and 11). The assay allows for the full pH durability of S. cerevisiae to be exploited as prior pH adjustment of samples is not required. Luminescence of the sample containing cuvettes are compared to a blank containing diluent(s) used in the assay. This blank defines 100% luminescence.
Dilutions were then made of the stock solutions using deionised water adjusted to pH5.5, as above. The cells were harvested at peak luminescence, centrifuged at 700 g and washed twice in 5 M KCl; keeping the original volume constant. The toxicant (450 μl) was added to each cuvette. The final volume was then made up to 500 μl using 3 to 4×10^7 cells. After 10 min, 500 μl of citrate phosphate buffer (pH 2.5) containing 5 μl of 20 mM luciferin was added to each cuvette and the bioluminescence was monitored.

As to `CC[n+]1c(-c2ccccc2)c2cc(N)ccc2c2ccc(N)cc21` [ethidium bromide], in series [1], the “effect on dividing cells (luciferase activity)” value was “clear decrease in cell division”. For the same molecule, in series [2], the “effect on non-dividing cells (light output)” value is recorded as “no clear toxic effect”.
With `[Cu]` [copper], the “detection of copper after 48 hours growth of the biosensor” value in series [3] (10 min copper exposure, sensor cells used after 48 hours, FIG. 11) was “still actively detecting”. In addition, the “detection of toxic substance by change in luminescence” value in series [3] is listed as “can detect”.
On to `Oc1cc(Cl)cc(Cl)c1` [3,5-dichlorophenol], for which, in series [3], the “detection of toxic substance by change in luminescence” value is “can detect”.
